Patent US20200384018A1, “OZONE NANOBUBBLE ANTICANCER AGENT” (OPT CREATION INC., priority 2017, published 2020)
Counter-ions that a name gives are not always drawn.

System: MIAPaCa-2 cells
Assay: Combination of NAnO3 and existing anticancer agents, sequential administration (neutral red)
Format: cell-based, human
Conditions: exposed only to the anticancer agent (doxorubicin 0.1, gemcitabine 0.04, cisplatin 4 μg/mL); DMEM medium = 100%
Protocol: A cell suspension was prepared such that MIAPaCa-2 viable cell count became 5×10^4 cells/mL. The cell suspension (1 mL) was seeded in each of wells of a 12 well plate, allowed to stand in a CO2 incubator set at 37° C. and 5% CO2 and cultured for 18 hours or more to allow the cells to adhere to the bottom of the plate. After the completion of culture, the medium was removed from the plate and the following test-substance solutions were added.
Test-substance solutions 1 to 6 were prepared in the same manner as in Section 2.1 and used. Test-substance solutions 7 to 9 were prepared by adding each anticancer agent/DMEM medium (0.9 mL) and, in several minutes later, adding 0.1 mL of NAnO3. The same operation was also repeated after 48 hours and 72 hours.
After the completion of culture, the medium was removed and washing with PBS (−) was made. To each of the wells of the plate, a 0.005% neutral red (NR) (Kanto Chemical Co., Inc., Lot No. 806W2294) D-MEM solution (1 mL) was added and the plate was allowed to stand in a CO2 incubator for 3 hours. After 3 hours, the NR solution was removed and washing was made with PBS (−). To each plate, 1 mL of a fixation/extraction liquid (ethanol 50% (v/v), glacial acetic acid 1% (v/v) aqueous solution) was added and shaking was made for 10 minutes. Thereafter, the value of the absorbance was measured by using a microplate reader (EL×800, BIO-TEC INSTRUMENTS, INC., wavelength: 540 nm).
Provided that the absorbance of DMEM medium (test-substance solution 1) was regarded as 100%, the cell survival rate (%) of each test group was obtained (FIG. 4).

| Compound | cell survival rate [%] |
| --- | --- |
| N.N.[Cl][Pt][Cl] [cisplatin] | 47.5 |
| Nc1ccn([C@@H]2O[C@H](CO)[C@@H](O)C2(F)F)c(=O)n1 [gemcitabine, gemcitabine hydrochloride] | 44.8 |
| COc1cccc2c1C(=O)c1c(O)c3c(c(O)c1C2=O)C[C@@](O)(C(=O)CO)C[C@@H]3O[C@H]1C[C@H](N)[C@H](O)[C@H](C)O1 [doxorubicin, doxorubicin hydrochloride] | 51.1 |
